Results: patent publication US11485742B2, “2-azaspiro[3.4]octane derivatives as M4 agonists” (NOVARTIS AG, priority 2019, dated 2022)

Columns and labels:
[1] = target: T1, human cloned CHRM2 receptor (Homo sapiens, UniProt P08172); test: CHRM2 Ca++ Flux Assay (M2_CHO cells, agonist mode); type: cell-based; details: M2 CHO cells; for EC50: agonist mode, geometric mean if tested more than once, read-out: M2 FDSS EC50; for Emax: Percent Activity (PA) measured to EC100 of Carbachol, read-out: M2 FDSS PA %
T1 construct: expressed in transfected cells; host or cells: CHO-K1 (M2_CHO)
T1 sequence (P08172 1-466): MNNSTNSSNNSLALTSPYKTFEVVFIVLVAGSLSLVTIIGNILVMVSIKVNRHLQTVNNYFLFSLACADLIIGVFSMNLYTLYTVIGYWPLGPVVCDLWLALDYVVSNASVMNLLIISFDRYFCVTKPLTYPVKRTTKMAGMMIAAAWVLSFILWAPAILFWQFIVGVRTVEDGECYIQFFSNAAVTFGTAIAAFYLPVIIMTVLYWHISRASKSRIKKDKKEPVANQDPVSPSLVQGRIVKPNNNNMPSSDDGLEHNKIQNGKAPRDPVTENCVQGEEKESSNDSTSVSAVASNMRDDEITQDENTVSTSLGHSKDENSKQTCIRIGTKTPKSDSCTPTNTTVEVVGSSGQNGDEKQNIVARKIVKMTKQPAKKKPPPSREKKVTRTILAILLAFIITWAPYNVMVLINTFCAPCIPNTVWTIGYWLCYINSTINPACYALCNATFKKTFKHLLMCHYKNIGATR
In short: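 Agonist activity was expressed as percent of the carbachol EC100 response, fitted by four-parameter regression on triplicate wells, with geometric means across repeat runs. Calcium traces over 3 minutes came from dye-loaded M2_CHO cells (12K/well) pre-incubated 60 min in Ca/Mg-free HBSS with 20 mM HEPES, 2.5 mM probenecid and 20 μM ATP.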

[2] = target: T2, Cloned human M1 receptor (CHRM1) (Homo sapiens, UniProt P11229); test: CHRM1 Ca++ Flux Assay (HEK293 M1 cells, agonist mode); type: cell-based; details: for Emax: Percent Activity (PA), read-out: M1 FDSS PA %; for EC50: geometric mean if tested more than once, read-out: M1 FDSS EC50
T2 construct: expressed in transfected cells; host or cells: HEK293
T2 sequence (P11229 1-460): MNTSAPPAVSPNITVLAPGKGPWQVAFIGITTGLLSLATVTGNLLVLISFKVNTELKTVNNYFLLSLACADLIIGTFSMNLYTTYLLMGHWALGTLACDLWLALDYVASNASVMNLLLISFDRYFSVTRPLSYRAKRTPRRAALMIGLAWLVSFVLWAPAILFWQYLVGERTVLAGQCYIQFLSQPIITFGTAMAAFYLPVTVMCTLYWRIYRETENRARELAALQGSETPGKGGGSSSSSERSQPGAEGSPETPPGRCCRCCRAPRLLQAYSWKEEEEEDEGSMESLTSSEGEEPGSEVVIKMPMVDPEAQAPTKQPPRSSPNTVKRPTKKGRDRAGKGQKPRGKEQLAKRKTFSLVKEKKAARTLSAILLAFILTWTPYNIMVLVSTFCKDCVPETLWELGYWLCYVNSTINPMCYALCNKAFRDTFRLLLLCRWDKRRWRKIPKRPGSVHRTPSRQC
In short: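 In agonist mode, compound-induced intracellular Ca++ mobilization was recorded for 3 min by fluorescent imager. The cells were HEK293 stably expressing cloned human CHRM1, in Ca/Mg-free HBSS with 20 mM HEPES. Triplicate 11-point dose-responses were fitted by four-parameter regression and normalized to the carbachol EC100 response.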

SMILES	EC50 [1]	Emax [1]	Emax [2]	EC50 [2]
Cc1nnc(COc2ccc(F)cc2C2CCN([C@@H]3COC4(C3)CN(c3nnco3)C4)CC2)s1 [Example 2E, (S)-7-(4-(5-fluoro-2-((5-methyl-1,3,4-thiadiazol-2-yl)methoxy)phenyl)piperidin-1-yl)-2-(1,3,4-oxadiazol-2-yl)-5-oxa-2-azaspiro[3.4]octane]	81 nM	59%	112%	116 nM
Cc1nnc(COc2ccc(F)cc2C2CCN([C@@H]3COC4(C3)CN(c3nnco3)C4)CC2)o1 [Example 2F, (S)-7-(4-(5-fluoro-2-((5-methyl-1,3,4-oxadiazol-2-yl)methoxy)phenyl)piperidin-1-yl)-2-(1,3,4-oxadiazol-2-yl)-5-oxa-2-azaspiro[3.4]octane]	113 nM	67%	103%	61 nM
Cc1cc(COc2ccc(F)cc2C2CCN([C@@H]3COC4(C3)CN(c3nnco3)C4)CC2)on1 [Example 2G, (S)-7-(4-(5-fluoro-2-((3-methylisoxazol-5-yl)methoxy)phenyl)piperidin-1-yl)-2-(1,3,4-oxadiazol-2-yl)-5-oxa-2-azaspiro[3.4]octane]	61 nM	55%	89%	289 nM
Fc1ccc(OCC2COC2)c(C2CCN([C@@H]3COC4(C3)CN(c3nnco3)C4)CC2)c1 [Example 2H, (S)-7-(4-(5-fluoro-2-(oxetan-3-ylmethoxy)phenyl)piperidin-1-yl)-2-(1,3,4-oxadiazol-2-yl)-5-oxa-2-azaspiro[3.4]octane]	309 nM	60%	101%	542 nM
Fc1ccc(OCc2ncccn2)c(C2CCN([C@@H]3COC4(C3)CN(c3nnco3)C4)CC2)c1 [Example 2I, (S)-7-(4-(5-fluoro-2-(pyrimidin-2-ylmethoxy)phenyl)piperidin-1-yl)-2-(1,3,4-oxadiazol-2-yl)-5-oxa-2-azaspiro[3.4]octane]	109 nM	35%	97%	98 nM
Fc1ccc(OCC2(F)COC2)c(C2CCN([C@@H]3COC4(C3)CN(c3nnco3)C4)CC2)c1 [Example 2J, (S)-7-(4-(5-fluoro-2-((3-fluorooxetan-3-yl)methoxy)phenyl)piperidin-1-yl)-2-(1,3,4-oxadiazol-2-yl)-5-oxa-2-azaspiro[3.4]octane]	214 nM	62%	103%	411 nM
CC1(COc2ccc(F)cc2C2CCN([C@@H]3COC4(C3)CN(c3nnco3)C4)CC2)COC1 [Example 2K, (S)-7-(4-(5-fluoro-2-((3-methyloxetan-3-yl)methoxy)phenyl)piperidin-1-yl)-2-(1,3,4-oxadiazol-2-yl)-5-oxa-2-azaspiro[3.4]octane]	498 nM	47%	97%	1360 nM
Fc1ccc(OC2CC3(COC3)C2)c(C2CCN([C@@H]3COC4(C3)CN(c3nnco3)C4)CC2)c1 [Example 2L, (S)-7-(4-(2-((2-oxaspiro[3.3]heptan-6-yl)oxy)-5-fluorophenyl)piperidin-1-yl)-2-(1,3,4-oxadiazol-2-yl)-5-oxa-2-azaspiro[3.4]octane]	1070 nM	14%	47%	2220 nM
Fc1ccc(OC[C@H]2CCCO2)c(C2CCN([C@@H]3COC4(C3)CN(c3nnco3)C4)CC2)c1 [Example 2M, (S)-7-(4-(5-fluoro-2-(((R)-tetrahydrofuran-2-yl)methoxy)phenyl)piperidin-1-yl)-2-(1,3,4-oxadiazol-2-yl)-5-oxa-2-azaspiro[3.4]octane]	2030 nM	20%	7%	3570 nM
CCC1(COc2ccc(F)cc2C2CCN([C@@H]3COC4(C3)CN(c3nnco3)C4)CC2)COC1 [Example 2P, (S)-7-(4-(2-((3-ethyloxetan-3-yl)methoxy)-5-fluorophenyl)piperidin-1-yl)-2-(1,3,4-oxadiazol-2-yl)-5-oxa-2-azaspiro[3.4]octane]	1070 nM	36%	71%	2080 nM
Fc1ccc(OCC2CC3(COC3)C2)c(C2CCN([C@@H]3COC4(C3)CN(c3nnco3)C4)CC2)c1 [Example 2S, (S)-7-(4-(2-((2-oxaspiro[3.3]heptan-6-yl)methoxy)-5-fluorophenyl)piperidin-1-yl)-2-(1,3,4-oxadiazol-2-yl)-5-oxa-2-azaspiro[3.4]octane]	2180 nM	29%	53%	5410 nM
CCc1nnc(COc2ccc(F)cc2C2CCN([C@@H]3COC4(C3)CN(c3nnco3)C4)CC2)s1 [Example 2T, (S)-7-(4-(2-((5-ethyl-1,3,4-thiadiazol-2-yl)methoxy)-5-fluorophenyl)piperidin-1-yl)-2-(1,3,4-oxadiazol-2-yl)-5-oxa-2-azaspiro[3.4]octane]	41 nM	44%	89%	63 nM
OC1(COc2ccc(F)cc2C2CCN([C@@H]3COC4(C3)CN(c3nnco3)C4)CC2)COC1 [Example 2U, (S)-3-((2-(1-(2-(1,3,4-oxadiazol-2-yl)-5-oxa-2-azaspiro[3.4]octan-7-yl)piperidin-4-yl)-4-fluorophenoxy)methyl)oxetan-3-ol]	275 nM	51%	81%	223 nM

Continued, values first:

EC50 [1]	Emax [1]	Emax [2]	EC50 [2]	SMILES
> 25000 nM	0%	79%	786 nM	CC(C)(O)CCOc1cc(F)ccc1C1CCN([C@@H]2COC3(C2)CN(c2nncs2)C3)CC1 [Example 5V, (S)-4-(2-(1-(2-(1,3,4-thiadiazol-2-yl)-5-oxa-2-azaspiro[3.4]octan-7-yl)piperidin-4-yl)-5-fluorophenoxy)-2-methylbutan-2-ol]
20700 nM	30%	68%	3590 nM	Fc1ccc(OC2CC3(COC3)C2)c(C2CCN([C@@H]3COC4(C3)CN(c3nncs3)C4)CC2)c1 [Example 5W, (S)-7-(4-(2-((2-oxaspiro[3.3]heptan-6-yl)oxy)-5-fluorophenyl)piperidin-1-yl)-2-(1,3,4-thiadiazol-2-yl)-5-oxa-2-azaspiro[3.4]octane]
1420 nM	43%	75%	2340 nM	Fc1ccc(OC[C@H]2CCOC2)c(C2CCN([C@@H]3COC4(C3)CN(c3nncs3)C4)CC2)c1 [Example 5X, (S)-7-(4-(5-fluoro-2-(((S)-tetrahydrofuran-3-yl)methoxy)phenyl)piperidin-1-yl)-2-(1,3,4-thiadiazol-2-yl)-5-oxa-2-azaspiro[3.4]octane]
> 25000 nM	0%	47%	1990 nM	CC(C)(O)COc1ccccc1C1CCN([C@@H]2COC3(C2)CN(c2ncns2)C3)CC1 [Example 5Y, (S)-1-(2-(1-(2-(1,2,4-thiadiazol-5-yl)-5-oxa-2-azaspiro[3.4]octan-7-yl)piperidin-4-yl)phenoxy)-2-methylpropan-2-ol]
623 nM	18%	53%	887 nM	Fc1ccc(OC2CCOCC2)c(C2CCN([C@@H]3COC4(C3)CN(c3ncon3)C4)CC2)c1 [Example 6A, (S)-7-(4-(5-fluoro-2-((tetrahydro-2H-pyran-4-yl)oxy)phenyl)piperidin-1-yl)-2-(1,2,4-oxadiazol-3-yl)-5-oxa-2-azaspiro[3.4]octane]
